# Data from US9316638B2, “Reagents for reducing leukocyte interference in immunoassays” (Abbott Point of Care Inc., priority 2010, dated 2016).
# Key:
# [1] = glucose and oxygen concentrations in treated EBS samples (i-STAT CG8+ cartridges); format: biochemical, human; details: OX 4.0 IU per mL, Glu 700 mg/dL
# Protocol: In the first group the enzyme is anticipated to remove substantially all the oxygen and the co-reactant glucose is added in substantial excess. The second group relies on glucose already in the sample to react with the enzyme. The third group is a control with added glucose and no enzyme.
# Note that i-STAT® CG8+ cartridges (Abbott Point of Care, New Jersey, USA) were used to determine the glucose and oxygen concentrations.
# The “Sample 2” set of data was obtained where the treatment occurs in a closed syringe to prevent any oxygen being introduced from ambient air. […] The “Sample 3” data reflects opening the syringe about 20 minutes after the initial runs to allow ambient air access. This sample was run at the 40 minute mark. […] The “Sample 1” data in FIG. 28A is a control EBS+Glu only.
# [2] = Text: While it is more common for a blood sample used in an immunoassay performed in a laboratory to be drawn from a vein, where point-of-care (or bedside, e.g. Emergency Room, Operating Room) testing is done, it is not uncommon for the sample to be drawn from an artery. […] To assess the impact of an arterial sample on the present assay, simulated arterial samples were generated and tested. […] Simulated samples were created with a tonometer using venous blood collected in an EDTA tube. The tonometer equilibrates the blood with a predetermined gas composition.
# Note these samples were not enriched as described above.
# leukocytes = experiment: BNP immunoassay signal slope (AmpActSlope) as indicator of leukocyte interference in enriched buffy blood samples (EBS); format: cell-based, human
# Protocol: The experiments described below were performed on a BNP assay, specifically an i-STAT® BNP cartridge (Abbott Point of Care, Princeton, N.J., USA) or a partially modified version thereof.
# As an experimental aid to understanding the affect of leukocytes on whole-blood immunoassays, it is desirable to create an enriched buffy (blood) sample (EBS). […] In the experiments described herein, the EBS constituted approximately a ten-fold increase in the buffy concentration, i.e. roughly 90% of the plasma and red cells were removed. The hematocrit value (Hct) of the sample was therefore maintained in the normal range, roughly 50-60%.
# As a baseline indicator of leukocyte interference, a cut-off value of a signal rate of change above 0.05 nA per second, was used (see right side y-axis, AmpActSlope). […] In the first group the enzyme is anticipated to remove substantially all the oxygen and the co-reactant glucose is added in substantial excess. The second group relies on glucose already in the sample to react with the enzyme. The third group is a control with added glucose and no enzyme.
# With respect to the first group (EBS+OX+Glu), the initial oxygen concentration of about 200 mm Hg falls to about 10 mm Hg after 50 minutes, and the glucose concentration drops from 700 to about 100 mg/dL over the same period. During this period immunoassays were run to determine the AmpActSlope value.
# To further characterize these effects, a study was run on a larger sample donor pool (15 donors multiple runs), as shown in FIG. 27. FIG. 27 is a scatter plot where the desirable AmpActSlope value is less than 0.05 and greater than −0.03 nA per second. In addition, in this particular experiment a maximum desirable sensor threshold current (ParamActDoc) was also set at 8.0 nA. The desirable result was therefore to minimize samples falling into the five segments around the target zone.
substance,measurement,setting,value
glucose oxidase,glucose concentration after treatment,[1]; OX+Glu from 700 after 50 minutes,below 20 mg/dL
same,oxygen concentration (PO2) after treatment,"[1]; initial about 200 mm Hg, OX+Glu value after 50 minutes",about 50 mm Hg
same,inhibition of phagocytosis in arterial blood,[2]; glucose oxidase 6.0 IU and 12.0 IU per mL,sufficient to inhibit phagocytosis
same,partial pressure of oxygen in the sample,"[2]; simulated arterial blood, initial PO2 about 150 mm Hg, glucose oxidase 6.0 IU and 12.0 IU per mL",below 50 mm Hg
same,change in glucose and PO2,"[2]; tonometered whole blood, glucose oxidase 6 and 12 IU per mL, no added glucose",decreased glucose and PO2
same,assayed samples with AmpActSlope below 0.05 nA per second,"leukocytes; EBS, OX 4.0 IU per mL, Glu 700 mg/dL, FIG. 26",9 out of 13
same,reduction in number of assays with slope above the desirable threshold,"leukocytes; addition of glucose oxidase, in general",about 90%
same,"difference in assays beyond threshold, treated vs untreated","leukocytes; treated 1.0% vs untreated 13.4%, FIG. 27",92.1%
same,"assays beyond threshold (AmpActSlope <0.05 and >-0.03 nA per second, ParamActDoc max 8.0 nA)","leukocytes; treated EBS+OX, N=287, 15 donors, FIG. 27",1.0%
same,glucose oxidase concentration in the sample found preferable,leukocytes; venous samples,> 3 IU per mL
